According to ChEMBL document CHEMBL5352434, “Design, synthesis, and biological evaluation of ocotillol derivatives fused with 2-aminothiazole via A-ring as modulators of P-glycoprotein-mediated multidrug resistance” (Eur J Med Chem, 2022):
Active and inactive are the calls of the source. No cut-off for these calls is given here.

What was measured:
[1] = Cytotoxicity against multi-drug resistance human KBV cells assessed as cell survival in presence of Verapamil incubated for 72 hrs by MTT assay; type: functional, cell-based
[2] = Cytotoxicity against multi-drug resistance human KBV cells assessed as cell survival in presence of 5 uM (20S,24R)-Epoxy-3-beta-N-glycyl-[3,2-b]thiazole-dammarane-12-beta,25-diol incubated for 72 hrs by MTT assay; type: functional, cell-based
[3] = Cytotoxicity against multi-drug resistance human KBV cells assessed as cell survival in presence of 10 uM (20S,24R)-Epoxy-3-beta-N-glycyl-[3,2-b]thiazole-dammarane-12-beta,25-diol incubated for 72 hrs by MTT assay; type: functional, cell-based
[4] = Cytotoxicity against multi-drug resistance human KBV cells assessed as cell survival incubated for 72 hrs by MTT assay; type: functional, cell-based
[5] = Cytotoxicity against multi-drug resistance human KBV cells assessed as cell survival in presence of Tariquidar incubated for 72 hrs by MTT assay; type: functional, cell-based
[6] = Cytotoxicity against multi-drug resistance human KBV cells assessed as cell survival rate at 10 uM incubated for 72 hrs by MTT assay; type: functional; details: read-out: Survival
[7] = Cytotoxicity against multi-drug resistance human KBV cells assessed as cell survival rate at 5 uM in presence of 100 nM Paclitaxel incubated for 72 hrs by MTT assay; type: functional; details: read-out: Survival
[8] = Cytotoxicity against multi-drug resistance human KBV cells assessed as cell survival rate at 10 uM in presence of 100 nM Paclitaxel incubated for 72 hrs by MTT assay; type: functional; details: read-out: Survival
[9] = Cytotoxicity against multi-drug resistance human KBV cells assessed as cell survival rate at 5 uM incubated for 72 hrs by MTT assay; type: functional; details: read-out: Survival
KBV = assay: Antitumor activity against human MDR KBV cells xenografted in BALB/c nude mouse assessed as change in tumor volume at 30 mg/kg every 3 days for 18 days; type: functional, organism-based; details: time 18.0 day
[10] = Toxicity in BALB/c nude mouse xenografted with human MDR KBV cells assessed as change in body weight administered at 30 mg/kg every 3 days for 18 days; type: organism-based; details: in vivo, 432 h, time 18 day

Structure (SMILES)	IC50 [1]	IC50 [2]	IC50 [3]	IC50 [4]	IC50 [5]	viability at 10 µM [6]	viability at 5 µM [7]	viability at 10 µM [8]	viability at 5 µM [9]	Activity (KBV)	Activity [10]
CC[C@]1(O)C[C@H]2CN(CCc3c([nH]c4ccccc34)[C@@](C(=O)OC)(c3cc4c(cc3OC)N(C=O)[C@H]3[C@@](O)(C(=O)OC)[C@H](OC(C)=O)[C@]5(CC)C=CCN6CC[C@]43[C@@H]65)C2)C1 [VINCRISTINE]	1.63 nM	13.7 nM	1.18 nM	559 nM	1.5 nM						
CC(C)[C@H](N)C(=O)Nc1nc2c(s1)C[C@]1(C)[C@H]3C[C@@H](O)[C@H]4[C@@H]([C@]5(C)CC[C@H](C(C)(C)O)O5)CC[C@@]4(C)[C@]3(C)CC[C@H]1C2(C)C						92.7%	91.6%	54.2%	95.2%		
CC(C)(O)[C@@H]1CC[C@@](C)([C@H]2CC[C@]3(C)[C@@H]2[C@H](O)C[C@@H]2[C@@]4(C)Cc5sc(N)nc5C(C)(C)[C@@H]4CC[C@]23C)O1						80.6%	68.7%	48.6%	112%		
CC(C)(O)[C@@H]1CC[C@@](C)([C@H]2CC[C@]3(C)[C@@H]2[C@H](O)C[C@@H]2[C@@]4(C)Cc5sc(NC(=O)[C@H]6CCCN6)nc5C(C)(C)[C@@H]4CC[C@]23C)O1						93.3%	69.8%	48.1%	94.6%		
CC(C)(O)[C@@H]1CC[C@@](C)([C@H]2CC[C@]3(C)[C@@H]2[C@H](O)C[C@@H]2[C@@]4(C)Cc5sc(NC(=O)CCCN)nc5C(C)(C)[C@@H]4CC[C@]23C)O1						67.2%	90%	57%	106%		
CC(C)(O)[C@H]1CC[C@@](C)([C@H]2CC[C@]3(C)[C@@H]2[C@H](O)C[C@@H]2[C@@]4(C)Cc5sc(NC(=O)CCCCCCCN)nc5C(C)(C)[C@@H]4CC[C@]23C)O1						23.5%	23.6%	15%	38.3%		
CC(C)(O)[C@@H]1CC[C@@](C)([C@H]2CC[C@]3(C)[C@@H]2[C@H](O)C[C@@H]2[C@@]4(C)Cc5sc(NC(=O)CCCCCCCCCCN)nc5C(C)(C)[C@@H]4CC[C@]23C)O1						17.5%	18.1%	16.4%	18.4%		
CC(C)(O)[C@H]1CC[C@@](C)([C@H]2CC[C@]3(C)[C@@H]2[C@H](O)C[C@@H]2[C@@]4(C)Cc5sc(NC(=O)[C@H]6CCCN6)nc5C(C)(C)[C@@H]4CC[C@]23C)O1						59.5%	39.5%	22.9%	84.1%		
CC(=O)O[C@H]1C(=O)[C@@]2(C)[C@H]([C@H](OC(=O)c3ccccc3)[C@]3(O)C[C@H](OC(=O)[C@H](O)[C@@H](NC(=O)c4ccccc4)c4ccccc4)C(C)=C1C3(C)C)[C@]1(OC(C)=O)CO[C@@H]1C[C@@H]2O [PACLITAXEL]	9.66 nM	58.5 nM	2.17 nM	788 nM	2.16 nM			99.3%		inactive	Non-Toxic
CC(C)(O)[C@H]1CC[C@@](C)([C@H]2CC[C@]3(C)[C@@H]2[C@H](O)C[C@@H]2[C@@]4(C)CC[C@H](O)C(C)(C)[C@@H]4CC[C@]23C)O1								86.6%			
CC(C)(O)[C@@H]1CC[C@@](C)([C@H]2CC[C@]3(C)[C@@H]2[C@H](O)C[C@@H]2[C@@]4(C)CC[C@H](O)C(C)(C)[C@@H]4CC[C@]23C)O1								86.5%			
C[C@H](N)C(=O)Nc1nc2c(s1)C[C@]1(C)[C@H]3C[C@@H](O)[C@@H]4[C@@H]([C@]5(C)CC[C@H](C(C)(C)O)O5)CC[C@@]4(C)[C@]3(C)CC[C@H]1C2(C)C						103%	67.3%	41%	91.4%		
C[C@H](N)C(=O)Nc1nc2c(s1)C[C@]1(C)[C@H]3C[C@@H](O)[C@@H]4[C@@H]([C@]5(C)CC[C@@H](C(C)(C)O)O5)CC[C@@]4(C)[C@]3(C)CC[C@H]1C2(C)C						97.4%	77.4%	46%	95.7%		
CC(C)(O)[C@@H]1CC[C@@](C)([C@H]2CC[C@]3(C)[C@@H]2[C@H](O)C[C@@H]2[C@@]4(C)Cc5sc(NC(=O)[C@H](N)Cc6c[nH]c7ccccc67)nc5C(C)(C)[C@@H]4CC[C@]23C)O1						95.7%	94.4%	76.3%	92.8%		
CC(C)(O)[C@H]1CC[C@@](C)([C@H]2CC[C@]3(C)[C@@H]2[C@H](O)C[C@@H]2[C@@]4(C)Cc5sc(NC(=O)[C@H](N)Cc6ccccc6)nc5C(C)(C)[C@@H]4CC[C@]23C)O1						101%	54.1%	39.1%	100%		
CC(C)(O)[C@H]1CC[C@@](C)([C@H]2CC[C@]3(C)[C@H]2[C@H](O)C[C@@H]2[C@@]4(C)Cc5sc(NC(=O)[C@H](N)Cc6c[nH]c7ccccc67)nc5C(C)(C)[C@@H]4CC[C@]23C)O1						93.9%	69.5%	55.6%	91.9%		
CC(C)(O)[C@H]1CC[C@@](C)([C@H]2CC[C@]3(C)[C@@H]2[C@H](O)C[C@@H]2[C@@]4(C)Cc5sc(NC(=O)CCCCCN)nc5C(C)(C)[C@@H]4CC[C@]23C)O1						30.3%	21.6%	12.5%	35.3%		
CC(C)(O)[C@@H]1CC[C@@](C)([C@H]2CC[C@]3(C)[C@@H]2[C@H](O)C[C@@H]2[C@@]4(C)Cc5sc(NC(=O)CN)nc5C(C)(C)[C@@H]4CC[C@]23C)O1						65.4%	59.4%	30.2%	94.6%		
CC(C)C[C@H](N)C(=O)Nc1nc2c(s1)C[C@]1(C)[C@H]3C[C@@H](O)[C@H]4[C@@H]([C@]5(C)CC[C@H](C(C)(C)O)O5)CC[C@@]4(C)[C@]3(C)CC[C@H]1C2(C)C						89%	90.4%	32.6%	92.8%		
O=C1c2c(O)ccc(O)c2C(=O)c2c(NCCNCCO)ccc(NCCNCCO)c21 [MITOXANTRONE]	97.5 nM	165 nM	61.9 nM	299 nM	90 nM						
CC(C)(O)[C@@H]1CC[C@@](C)([C@H]2CC[C@]3(C)[C@@H]2[C@H](O)C[C@@H]2[C@@]4(C)Cc5sc(NC(=O)CCCCCN)nc5C(C)(C)[C@@H]4CC[C@]23C)O1						72.2%	72.2%	67.2%	93.5%		
CC(C)(O)[C@@H]1CC[C@@](C)([C@H]2CC[C@]3(C)[C@@H]2[C@H](O)C[C@@H]2[C@@]4(C)Cc5sc(NC(=O)CCCCCCCN)nc5C(C)(C)[C@@H]4CC[C@]23C)O1						16.5%	29%	17.3%	44.7%		
CC(C)(O)[C@H]1CC[C@@](C)([C@H]2CC[C@]3(C)[C@@H]2[C@H](O)C[C@@H]2[C@@]4(C)Cc5sc(N)nc5C(C)(C)[C@@H]4CC[C@]23C)O1						73.9%	33.7%	18.2%	104%		
CC(C)(O)[C@H]1CC[C@@](C)([C@H]2CC[C@]3(C)[C@@H]2[C@H](O)C[C@@H]2[C@@]4(C)Cc5sc(NC(=O)CCCCCCCCCCN)nc5C(C)(C)[C@@H]4CC[C@]23C)O1						12.4%	17.5%	11.4%	43.6%		
CC(C)(O)[C@@H]1CC[C@@](C)([C@H]2CC[C@]3(C)[C@@H]2[C@H](O)C[C@@H]2[C@@]4(C)Cc5sc(NC(=O)[C@H](N)Cc6ccccc6)nc5C(C)(C)[C@@H]4CC[C@]23C)O1						96%	101%	50.2%	103%		
CC(C)(O)[C@H]1CC[C@@](C)([C@H]2CC[C@]3(C)[C@@H]2[C@H](O)C[C@@H]2[C@@]4(C)Cc5sc(NC(=O)CCCN)nc5C(C)(C)[C@@H]4CC[C@]23C)O1						14.9%	19.8%	12.6%	34.7%		
CC(C)[C@H](N)C(=O)Nc1nc2c(s1)C[C@]1(C)[C@H]3C[C@@H](O)[C@H]4[C@@H]([C@]5(C)CC[C@@H](C(C)(C)O)O5)CC[C@@]4(C)[C@]3(C)CC[C@@]1(O)C2(C)C						100%	98.6%	90.7%	92.5%		
CC(C)C[C@H](N)C(=O)Nc1nc2c(s1)C[C@]1(C)[C@H]3C[C@@H](O)[C@@H]4[C@@H]([C@]5(C)CC[C@@H](C(C)(C)O)O5)CC[C@@]4(C)[C@]3(C)CC[C@H]1C2(C)C						98.1%	71.8%	50.9%	89.3%		
